From article PMC5841205, “Pharmacological targeting of apelin impairs glioblastoma growth” (Brain, 2017)
Positions of bridges follow the written chain, without caps; N, C: chain ends. Residues, ends and D or L forms follow the SMILES beside them.

Tested on: C57Bl/6J female mice
Assay: Complete blood count
Type: in vivo, mouse
Method: To test potential toxic effects of MM54 and MM193 in vivo, mice were administered 2 mg/kg of MM54, MM193 or vehicle bi-weekly for 4 weeks. At sacrifice, blood was taken for analysis and the heart, kidney, aorta and liver removed, weighed and fixed for histological analysis. For the glycaemic study, animals were starved for 6 h prior to sacrifice.
Total blood count DMSO MM54
Red blood cells (M/µl) 6,8 ± 0,9 7,5 ± 0,3
Mean corpuscular volume (fl) 46,4 ± 0,2 47,2 ± 0,4
Mean corpuscular haemoglobin (pg) 13,0 ± 0,0 13,2 ± 0,2
Mean corpuscular haemoglobin concentration (g/dl) 27,9 ± 0,1 27,9 ± 0,3 Red cell distribution width (%) 15,7 ± 0,2 16,1 ± 0,1
Table S5. Blood analysis after MM54 treatment
In order to test potential toxic effects of MM54 in vivo, C57Bl/6J female mice were administered 2 mg/kg of MM54 or DMSO vehicle, bi-weekly for 4 weeks. At sacrifice, blood was taken for analysis and the heart, kidney, aorta and liver removed, weighed and fixed for histological analysis (as shown in Figure S4). n=4 mice/group, 63 mean±SEM.

[1] = MM54 2 mg/kg bi-weekly, 4 weeks, female C57Bl/6J mice, n=4, mean±SEM

With CC(C)C[C@@H]1NC(=O)[C@H](CCCNC(=N)N)NC(=O)[C@@H]2CCCN2C(=O)[C@H](CCCNC(=N)N)NC(=O)[C@@H](NC(=O)[C@H](Cc2c[nH]cn2)NC(=O)[C@H](CCCCN)NC(=O)[C@@H]2CSSC[C@H](N)C(=O)N[C@@H](CCCNC(=N)N)C(=O)N3CCC[C@H]3C(=O)N[C@@H](CCCNC(=N)N)C(=O)N[C@@H](CC(C)C)C(=O)N2)CSSC[C@@H](C(=O)O)NC1=O [MM54, cyclo(1–6)CRPRLC-KH-cyclo(9–14)CRPRLC] (H-CRPRLCKHCRPRLC-OH; disulfide 1-6, 9-14) the “complete blood count vs vehicle” value (MM54 2 mg/kg bi-weekly for 4 weeks, healthy animals) was “no significant differences”, the Basophils [1] was 0,19 ± 0,12 K/µl and the Eosinophils [1] was 0,52 ± 0,28 K/µl. For the same molecule, the Haemoglobin [1] was 9,9 ± 0,6 g/dl, the Hematocrit [1] was 35,4 ± 1,9% and the Lymphocytes [1] was 7,50 ± 0,51 K/µl. The Mean corpuscular haemoglobin [1] was 13,2 ± 0,2 pg, the “Mean corpuscular haemoglobin concentration” value [1] was 27,9 ± 0,3 g/dl and the Mean corpuscular volume [1] was 47,2 ± 0,4 fl. For the same molecule, the Mean platelet volume [1] was 4,45 ± 0,16 fl, the Monocytes [1] was 0,42 ± 0,11 K/µl and the Neutrophils [1] was 2,56 ± 0,66 K/µl. For the same molecule, the Platelet [1] was 301 ± 27 K/µl, the Red blood cells [1] was 7,5 ± 0,3 M/µl and the “Red cell distribution width” value [1] was 16,1 ± 0,1%.
